The values below are quoted from earlier work in US10653667B2, “Drug for preventing, treating or preventing metastasis of giant cell tumor that occurs in bone or soft parts, chondrosarcoma, or osteosarcoma, local injection for arterial embolization, and artificial bone” (NIPPON CHEMIPHAR CO., LTD, priority 2013, dated 2020).

The test system of data set [1] is synovial cells derived from rheumatism patients. Particulars: cited from earlier work.
Data set [2] relates to OST cells, human bone sarcoma-derived cultured cells. The conditions noted are these: transdermally administered; after four weeks; cited from earlier work.

For the compound `CC(C(=O)O)c1cccc(C(=O)c2ccccc2)c1` (stereo not shown) [ketoprofen], in data set [1], the “activation of PPARγ” value is recorded as “did not cause activation of PPARγ”, the apoptosis result is reported as “did not cause” and the “suppression of proliferation of the cells” value is “did not cause”. Further, the “tumor weight relative to placebo group” value in data set [2] is recorded as 48%.
